#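 Results reflect a 48-hour exposure of cells in 96-well plates to compound at five concentrations. GI50 is the concentration that inhibits growth by half. TGI is the concentration that stops growth completely.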
# What was measured:
# Assay in all cases: NCI-60 cell line screen, 48 h
# [1] = tested on: K-562 leukemia
# [2] = tested on: HCT-116 colon
# [3] = tested on: COLO 205 colon
# [4] = tested on: NCI-H23 lung
# [5] = tested on: HS 578T breast
# [6] = tested on: CCRF-CEM leukemia
# [7] = tested on: HCT-15 colon
# [8] = tested on: U251 CNS
# [9] = tested on: SF-539 CNS
# [10] = tested on: MDA-MB-435
Structure (SMILES),GI50 [1] [µM],TGI [1] [µM],GI50 [2] [µM],TGI [2] [µM],GI50 [3] [µM],TGI [3] [µM],GI50 [4] [µM],TGI [4] [µM],TGI [5] [µM],GI50 [6] [µM],TGI [6] [µM],GI50 [7] [µM],TGI [7] [µM],GI50 [8] [µM],TGI [8] [µM],GI50 [9] [µM],TGI [9] [µM],TGI [10] [µM],GI50 [5] [µM],GI50 [10] [µM]
O=C(Cn1ccnc1[N+](=O)[O-])N(CCO)CCO,> 1250,> 1250,> 1250,> 1250,> 250,> 1250,> 1250,> 1250,> 250,> 580,> 580,> 1250,> 1250,> 1250,> 1250,> 1250,> 1250,> 250,–,–
Cn1ncc2c(Nc3ccc(Br)cc3)nc(Nc3ccc(Br)cc3)nc21,1.59,4.3,3.22,11.9,1.65,3.2,3.63,16.2,9.59,3.23,22,2.2,5.62,2.89,10,3.17,10.8,10.7,2.61,2.86
CCOc1ccc(NC(=O)Nc2cc(C(C)C)ccc2C)cc1,21.4,> 100,5.73,16.1,15.3,> 100,16.4,98.1,7.06,> 25.5,> 100,28.7,> 100,5.89,17.8,4.39,16.6,> 100,2.32,17.6

# Reference: PubChem BioAssay (NCI)
